These are literature values, as cited in PMC8198792, “Prediction of Anticancer Peptides with High Efficacy and Low Toxicity by Hybrid Model Based on 3D Structure of Peptides” (International Journal of Molecular Sciences, 2021).

For the first series, the system named is erythrocytes. The settings on record: Hemolytic peptides dataset HD2; label 1 = hemolytic, 0 = non-hemolytic; ref Hemolytik/SATPdb; cited from earlier work. The text has this: Supplement ijms-22-05630-s001.zip/Hemloytic Peptides(seguence).xlsx, sheet "HD1" | column: Activity || Supplement ijms-22-05630-s001.zip/Hemloytic Peptides(seguence).xlsx, sheet "HD2" | column: Activity || Supplement ijms-22-05630-s001.zip/Hemloytic Peptides(seguence).xlsx, sheet "HD3" | column: Activity
With VKLKVyPLKVKlyP [satpdb11392], the Activity is 1. In the case of KLLLK [compound 3825], the Activity is listed as 1. Consider fPOVO [satpdb21927], for which the Activity was 0. On to ILGKLLSTAAkLLSNL [satpdb12605], for which the Activity is given as 1. Take GIGKFLHSAKKFGKAFVGEIMNS [satpdb11151]: the Activity is given as 1. In the case of KKlFKKILkYL [satpdb19353], the Activity was 0.

The same series, now with this note: cited from earlier work.
Turning to KKLKKLLKKWKKLLKKLK [satpdb24868], the Activity is recorded as 0 and the “Activity (dataset HD1, hemolytic 1 / non-hemolytic 0)” value is on record as 0. As for KLLLKLLLK [compound 3826], the Activity is recorded as 1. In the case of KWKLFKKIPKFLHL [satpdb16155], the Activity was 0. Take RWRSFFKKAAHRGKHVGKRARTHYL [satpdb15888]: the Activity is listed as 0.

Turning to PKLLKTFLKWIG [satpdb11234], the Activity is reported as 1 and the “Activity (dataset HD1, hemolytic 1 / non-hemolytic 0)” value is listed as 1. On to DANVENGEDAEDLTDKFIGLMG [satpdb17330], for which the Activity was 0 and the “Activity (dataset HD1, hemolytic 1 / non-hemolytic 0)” value is recorded as 0. Turning to KKLLPIVANLLKSLL [satpdb19176], the Activity is listed as 0 and the “Activity (dataset HD1, hemolytic 1 / non-hemolytic 0)” value is 0. For the substance KKKKKKAAFAAWAAFAA [satpdb19804], the Activity is on record as 0.

For the substance RRGWVLALYLRYGRR [satpdb15589], the Activity is listed as 1 and the “Activity (dataset HD1, hemolytic 1 / non-hemolytic 0)” value is recorded as 1.

VRRFPFFFPFLRR [satpdb22709]: the Activity is on record as 0 and the “Activity (dataset HD1, hemolytic 1 / non-hemolytic 0)” value was 0. On to “GLFDIIKKIAESFKFSEAIKKIIDFLG [satpdb13437]”, for which the Activity is recorded as 1 and the “Activity (dataset HD1, hemolytic 1 / non-hemolytic 0)” value is reported as 1. In the case of “HALWMTLLKKVLKAAAKAALNAVLVGANA [satpdb12263]”, the Activity was 1 and the “Activity (dataset HD1, hemolytic 1 / non-hemolytic 0)” value was 1. Turning to “KWKSFLKTFKSAKKKVLHTALKAISS [satpdb11775]”, the Activity is listed as 1. Consider SFHVFPPWMCKSLKKC [satpdb22093], for which the Activity is recorded as 0 and the “Activity (dataset HD1, hemolytic 1 / non-hemolytic 0)” value was 0. On to KWKLKPLLKKLLKKL [satpdb10408], for which the Activity was 0. For LKLFKKILKYL [satpdb12465], the Activity is recorded as 1. WYLTLTLGYGRR [satpdb16552]: the Activity was 1 and the “Activity (dataset HD1, hemolytic 1 / non-hemolytic 0)” value is given as 1.

On to FLSLIPHAINAVSAIAKHN [satpdb11891], for which the Activity is 1. Consider CKTRTSTNTDHLWIAKSKARLSET [satpdb28106], for which the Activity is 0 and the “Activity (dataset HD1, hemolytic 1 / non-hemolytic 0)” value is 0.

Take KKFLHSAKKWLKAFVKLKKNW [satpdb15438]: the Activity is listed as 1 and the “Activity (dataset HD1, hemolytic 1 / non-hemolytic 0)” value was 1. As for RRRAAFAAWAAFAARRR [satpdb23563], the Activity is listed as 0.

For the substance ILGKLLSTAWGLLSNL [satpdb11718], the Activity is listed as 1. Take KWKKLLKKPLLKKLLKKL [satpdb12329]: the Activity is reported as 0. Regarding KKAAHVGKHVGKAALTHYL [satpdb21325], the Activity is on record as 0. On to LRRLWLRANRL [satpdb19164], for which the Activity is 0 and the “Activity (dataset HD1, hemolytic 1 / non-hemolytic 0)” value is on record as 0. Regarding “CYCRIPACIAGERRYGTCIYQGRLWAFCC [satpdb11499]”, the Activity is 1 and the “Activity (dataset HD1, hemolytic 1 / non-hemolytic 0)” value is recorded as 1. Regarding GWGSFFKKAAAVGKAVGKAALTAYL [satpdb15739], the Activity is reported as 1 and the “Activity (dataset HD1, hemolytic 1 / non-hemolytic 0)” value is 1. In the case of ILGKLLSTAAKLLSKL [satpdb12927], the Activity is reported as 1. With WNPFKELERAGQRVRDAIISAAP [satpdb17819], the Activity is recorded as 0 and the “Activity (dataset HD1, hemolytic 1 / non-hemolytic 0)” value is 0. Take GRDYRTSLTIVQKLKKMVD [satpdb22468]: the Activity is listed as 0 and the “Activity (dataset HD1, hemolytic 1 / non-hemolytic 0)” value is on record as 0. Regarding KRLFRRLLFSMKKY [satpdb20261], the Activity is listed as 0 and the “Activity (dataset HD1, hemolytic 1 / non-hemolytic 0)” value is given as 0. For GWGSFFKKAAHVGKHVGKA [satpdb20663], the Activity was 0.

For the substance LVRGCWTKSYPPKPCFVR [satpdb11737], the Activity is 1 and the “Activity (dataset HD1, hemolytic 1 / non-hemolytic 0)” value was 1. Consider FKTWKRPPFQTSCSGIIKE [satpdb21275], for which the Activity was 0 and the “Activity (dataset HD1, hemolytic 1 / non-hemolytic 0)” value is recorded as 0. On to PKLKTFLSKWIG [satpdb28564], for which the Activity was 0 and the “Activity (dataset HD1, hemolytic 1 / non-hemolytic 0)” value is recorded as 0. Take KWKLFKKIGPGKFLHSAKKF [satpdb18846]: the Activity was 0. Regarding KRFKQDGGWSHWSPWSS [satpdb23837], the Activity was 0 and the “Activity (dataset HD1, hemolytic 1 / non-hemolytic 0)” value was 0.

As for “FKCRRWQWRWKKLGAKPVPIIYCNRRTGKCQRM [satpdb24174]”, the Activity is listed as 0 and the “Activity (dataset HD1, hemolytic 1 / non-hemolytic 0)” value is on record as 0. WYSEMKRNVQRLERAIEE [satpdb11990]: the Activity was 1.

Take AKKVFKRLEKLFSKIWNDK [satpdb16260]: the Activity is 0 and the “Activity (dataset HD1, hemolytic 1 / non-hemolytic 0)” value is given as 0. As for KIAEKFSGTRRG [satpdb24068], the Activity was 0 and the “Activity (dataset HD1, hemolytic 1 / non-hemolytic 0)” value is 0. As for RRLMAAKAESRK [satpdb23556], the Activity was 0 and the “Activity (dataset HD1, hemolytic 1 / non-hemolytic 0)” value is 0. Turning to GSKKPVPIIYCNRRAATGKCQRM [satpdb20782], the Activity is listed as 0 and the “Activity (dataset HD1, hemolytic 1 / non-hemolytic 0)” value is 0. As for KKKKKKAAFAAFAAFAA [satpdb24627], the Activity is 0. Consider DVNDLKNLCAKTHNLLPMCAMFGKK [satpdb20310], for which the Activity is recorded as 0 and the “Activity (dataset HD1, hemolytic 1 / non-hemolytic 0)” value was 0. AKKVSKRLEKLFSKIQNDK [satpdb19605]: the Activity is reported as 0 and the “Activity (dataset HD1, hemolytic 1 / non-hemolytic 0)” value was 0. As to KKWLKKWLK [satpdb18253], the Activity is 0. For QKAVLDCLKAAGSSLSKAAITAI [satpdb19403], the Activity is listed as 0 and the “Activity (dataset HD1, hemolytic 1 / non-hemolytic 0)” value is 0. With LKKWLKKWLKK [satpdb15781], the Activity was 0. Consider QSRVIQGLVAGETAQQICED [satpdb27946], for which the Activity is recorded as 0 and the “Activity (dataset HD1, hemolytic 1 / non-hemolytic 0)” value is given as 0. On to “QLQGKQVSGEVVQKVLQELIQSVAKP [satpdb28356]”, for which the Activity is 0 and the “Activity (dataset HD1, hemolytic 1 / non-hemolytic 0)” value is listed as 0.

For the substance EMLKKKEVKMERKT [satpdb18957], the Activity is given as 0 and the “Activity (dataset HD1, hemolytic 1 / non-hemolytic 0)” value is on record as 0.

For the substance RRGWALRLVLAY [satpdb14852], the Activity is on record as 1 and the “Activity (dataset HD1, hemolytic 1 / non-hemolytic 0)” value was 1. Turning to CVISAGWNHKIRCKLTGNC [satpdb27441], the Activity is 0 and the “Activity (dataset HD1, hemolytic 1 / non-hemolytic 0)” value is given as 0. In the case of ENMFNIKSSVESDSFWG [satpdb15776], the Activity is listed as 0 and the “Activity (dataset HD1, hemolytic 1 / non-hemolytic 0)” value is on record as 0. As for FGVLAKVAAHVVPAIAEHF [satpdb27842], the Activity is listed as 0. Consider “ENAEEDIVLMENLFCSYIVGSADSFWT [satpdb18741]”, for which the Activity is 0 and the “Activity (dataset HD1, hemolytic 1 / non-hemolytic 0)” value is recorded as 0. On to KWKLFKKIKFLHSAKKF [satpdb22653], for which the Activity is listed as 0. Take KKKKKKAAFALWAAFAA [compound 1147]: the Activity is 1. In the case of RIIDLLWRVRRPQKPKFVTVWVR [satpdb14815], the Activity was 0 and the “Activity (dataset HD1, hemolytic 1 / non-hemolytic 0)” value is listed as 0. On to SFFKKAAHVGKHVGKAALTHYL [satpdb17678], for which the Activity is 0. Consider KWKLFKKIGIGKFLHSAKKF [compound 2023], for which the Activity is 0. For the substance FLGPIIKIATGILPTAICKILKKC [satpdb24144], the Activity is 0 and the “Activity (dataset HD1, hemolytic 1 / non-hemolytic 0)” value is listed as 0.

For the substance KRLFRRWQWRMKKY [satpdb17153], the Activity was 0 and the “Activity (dataset HD1, hemolytic 1 / non-hemolytic 0)” value is listed as 0.

Still in this series, the particulars now being: hemolytic peptides dataset HD3; 1 = hemolytic (positive set), 0 = non-hemolytic (negative set); labels taken from databases; ref Hemolytik/SATPdb; cited from earlier work.
KNWKGIAGMAKKLLGKNWELMKK [satpdb11666]: the Activity is reported as 1.

As for “CGESCVFIPCVTALLGCSCKSKVCYKNSIP [satpdb12547]”, the Activity is 1. As for VKLKVyPLKVKlyP [satpdb11392], the Activity was 1.

For KLLLK [compound 3825], the Activity is 1.

Regarding fPOVO [satpdb21927], the Activity is 0.

Consider FSPQMLQDIIEAATAIL [satpdb19301], for which the Activity is given as 0. As for EWGRRCCGWGPGRRYCRRWC [satpdb13121], the Activity was 0. Take “GVPCGESCVFIPCITGVIGCSCSSNVCYLN [satpdb12922]”: the Activity is on record as 1.

As for “GTPCGESCVYIPCISGVIGCSCTDKVCYLN [satpdb10399]”, the Activity is 1. In the case of ILGKLLSTAAkLLSNL [satpdb12605], the Activity is reported as 1. Turning to GIGKFLHSAKKFGKAFVGEIMNS [satpdb11151], the Activity is 1.

For the substance KKlFKKILkYL [satpdb19353], the Activity was 0.

Staying with this series, now noted: natural hemolytic peptide dataset HD1, label collected from databases; ref Hemolytik [49], SATPdb [34]; cited from earlier work.
KNWKGIAGMAKKLLGKNWELMKK [satpdb11666]: the “Activity (dataset HD1, hemolytic 1 / non-hemolytic 0)” value was 1. In the case of “CGESCVFIPCVTALLGCSCKSKVCYKNSIP [satpdb12547]”, the “Activity (dataset HD1, hemolytic 1 / non-hemolytic 0)” value was 1. For the substance FSPQMLQDIIEAATAIL [satpdb19301], the “Activity (dataset HD1, hemolytic 1 / non-hemolytic 0)” value is on record as 0.

In the case of EWGRRCCGWGPGRRYCRRWC [satpdb13121], the “Activity (dataset HD1, hemolytic 1 / non-hemolytic 0)” value is on record as 0. Consider “GVPCGESCVFIPCITGVIGCSCSSNVCYLN [satpdb12922]”, for which the “Activity (dataset HD1, hemolytic 1 / non-hemolytic 0)” value is reported as 1. With “GTPCGESCVYIPCISGVIGCSCTDKVCYLN [satpdb10399]”, the “Activity (dataset HD1, hemolytic 1 / non-hemolytic 0)” value is on record as 1.
